Data reported in patent publication US20230295197A1, “STAT5 and STAT6 Degraders and Uses Thereof” (REGENTS OF THE UNIVERSITY OF MICHICAN, priority 2022, published 2023).
Like-named read-outs stand apart in the source and are kept apart here.

Assays:
STAT5 = test: Immunoblotting (Western blot) analysis of STAT5 degradation efficiency of degraders in treated cells; assay type: cell-based
How it was run: (§1)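 Each data point uses roughly one million cells dosed as indicated; pellets are lysed on ice, freeze-thawed, and clarified. Reduced, denatured samples (95 °C, 5 min) run on SDS gels, then membranes receive rabbit mAbs to STAT5 or STAT6 plus mouse anti-GAPDH overnight, followed by dye-labelled secondaries for fluorescence imaging.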

STAT6 = target: T1, STAT6 (Homo sapiens, UniProt P42226); test: Immunoblotting (Western blot) analysis of STAT6 degradation efficiency of degraders in treated cells; assay type: cell-based
T1 construct: endogenous in cells; host or cells: MOLM-16, KU-812, SKNO1, MB231, L1236
T1 sequence (P42226 1-847): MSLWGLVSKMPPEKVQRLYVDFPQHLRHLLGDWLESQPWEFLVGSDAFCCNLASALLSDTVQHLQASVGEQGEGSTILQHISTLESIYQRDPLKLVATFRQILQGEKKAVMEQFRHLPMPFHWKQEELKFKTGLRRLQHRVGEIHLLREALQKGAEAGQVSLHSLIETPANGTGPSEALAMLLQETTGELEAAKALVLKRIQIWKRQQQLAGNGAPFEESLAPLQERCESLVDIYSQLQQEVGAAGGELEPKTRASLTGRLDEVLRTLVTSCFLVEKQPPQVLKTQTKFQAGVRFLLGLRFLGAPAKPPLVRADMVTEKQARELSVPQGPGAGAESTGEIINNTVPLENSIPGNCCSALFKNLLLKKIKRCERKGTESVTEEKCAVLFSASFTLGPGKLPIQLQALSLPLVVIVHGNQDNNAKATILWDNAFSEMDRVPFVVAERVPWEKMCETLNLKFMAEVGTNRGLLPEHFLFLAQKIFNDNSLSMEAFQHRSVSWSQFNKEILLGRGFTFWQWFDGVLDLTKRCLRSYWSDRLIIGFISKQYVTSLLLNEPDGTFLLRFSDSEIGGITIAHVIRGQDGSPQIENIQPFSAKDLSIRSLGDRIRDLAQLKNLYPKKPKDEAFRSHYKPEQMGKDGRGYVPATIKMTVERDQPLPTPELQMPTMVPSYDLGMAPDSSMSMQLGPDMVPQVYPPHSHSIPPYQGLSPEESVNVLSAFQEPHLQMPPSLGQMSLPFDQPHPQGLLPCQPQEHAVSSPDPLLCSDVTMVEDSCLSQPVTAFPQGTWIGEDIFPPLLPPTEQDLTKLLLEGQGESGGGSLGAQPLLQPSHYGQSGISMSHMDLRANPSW
How it was run: as §1

[1] = MOLM-16 cells, class symbols, read-out: DC50 S5 MOLM-16
[2] = MOLM-16 cells, numeric bound, read-out: DC50 S6 MOLM-16
[3] = MOLM-16 cells, numeric bound, read-out: DC50 S5 MOLM-16
[4] = SKNO1 cells, read-out: DC50 S5 SKNO1
[5] = KU-812 cells, read-out: DC50 S5 KU-812

SMILES	DC50 (STAT6; [2]) [nM]	DC50 (STAT5; [3]) [nM]	DC50 (STAT5; [4]) [nM]	further results
CC(C)(C)C(=O)OCOP(=O)(O)C(F)(F)c1ccc2sc(C(=O)N[C@H](C(=O)N3CCC[C@H]3C(=O)N(CCC(=O)NCCCC#Cc3cccc4c3CN(C3CCC(=O)NC3=O)C4=O)c3ccc(Br)cc3)C(C)(C)C)cc2c1 (stereo partly drawn) [Compound 653, ((((2-(((2S)-1-((2S)-2-((4-bromophenyl)(3-((5-(2-(2,6-dioxopiperidin-3-yl)-1-oxoisoindolin-4-yl)pent-4-yn-1-yl)amino)-3-oxopropyl)carbamoyl)pyrrolidin-1-yl)-3,3-dimethyl-1-oxobutan-2-yl)carbamoyl)benzo[b]thiophen-5-yl)difluoromethyl)(hydroxy)phosphoryl)oxy)methyl pivalate]	–	> 300	–	DC50 (STAT6; MOLM-16 cells, class symbols, read-out: DC50 S6 MOLM-16): < 100 nM
CC(C)(C)[C@H](NC(=O)c1cc2cc(C(F)(F)P(=O)(O)O)ccc2s1)C(=O)N1CCC[C@H]1C(=O)N(CCC(=O)NCCCC#Cc1cccc2c1CN(C1CCC(=O)NC1=O)C2=O)c1cccc2sccc12 (stereo partly drawn) [Compound 660, ((2-(((2S)-1-((2S)-2-(benzo[b]thiophen-4-yl(3-((5-(2-(2,6-dioxopiperidin-3-yl)-1-oxoisoindolin-4-yl)pent-4-yn-1-yl)amino)-3-oxopropyl)carbamoyl)pyrrolidin-1-yl)-3,3-dimethyl-1-oxobutan-2-yl)carbamoyl)benzo[b]thiophen-5-yl)difluoromethyl)phosphonic acid]	> 300	> 300	1000 to 10000	–
Cc1ncsc1-c1ccc([C@H](CC(=O)NCCCCCCCCC(=O)N[C@@H]2C[C@@H](C(=O)Nc3ncc(-c4ccccc4)s3)N(C(=O)[C@@H](NC(=O)c3cc4cc(C(F)(F)P(=O)(O)O)ccc4s3)C(C)(C)C)C2)NC(=O)[C@@H]2C[C@@H](O)CN2C(=O)[C@@H](NC(=O)C2(F)CC2)C(C)(C)C)cc1 [Compound 578, (difluoro(2-(((S)-1-((2S,4R)-4-(9-((S)-3-((2S,4R)-1-((S)-2-(1-fluorocyclopropane-1-carboxamido)-3,3-dimethylbutanoyl)-4-hydroxypyrrolidine-2-carboxamido)-3-(4-(4-methylthiazol-5-yl)phenyl)propanamido)nonanamido)-2-((5-phenylthiazol-2-yl)carbamoyl)pyrrolidin-1-yl)-3,3-dimethyl-1-oxobutan-2-yl)carbamoyl)benzo[b]thiophen-5-yl)methyl)phosphonic acid]	> 300	> 300	–	–
CC(C)(C)[C@H](NC(=O)c1cc2cc(C(F)(F)P(=O)(O)O)ccc2s1)C(=O)N1CCC[C@H]1C(=O)N(CCC(=O)NCCCC#Cc1cccc2c1CN(C1CCC(=O)NC1=O)C2=O)c1ccc2ncsc2c1 (stereo partly drawn) [Compound 662, ((2-(((2S)-1-((2S)-2-(benzo[d]thiazol-6-yl(3-((5-(2-(2,6-dioxopiperidin-3-yl)-1-oxoisoindolin-4-yl)pent-4-yn-1-yl)amino)-3-oxopropyl)carbamoyl)pyrrolidin-1-yl)-3,3-dimethyl-1-oxobutan-2-yl)carbamoyl)benzo[b]thiophen-5-yl)difluoromethyl)phosphonic acid]	> 300	> 300	> 10000	DC50 (STAT5; [5]): > 10000 nM
CC(C)(C)[C@H](NC(=O)c1cc2cc(C(F)(F)P(=O)(O)O)ccc2s1)C(=O)N1C[C@H](OCCCCCCC#Cc2cccc3c2CN(C2CCC(=O)NC2=O)C3=O)C[C@H]1C(=O)Nc1ncc(-c2ccccc2)s1 (stereo partly drawn) [Compound 606, ((2-(((2S)-1-((2S,4R)-4-((8-(2-(2,6-dioxopiperidin-3-yl)-1-oxoisoindolin-4-yl)oct-7-yn-1-yl)oxy)-2-((5-phenylthiazol-2-yl)carbamoyl)pyrrolidin-1-yl)-3,3-dimethyl-1-oxobutan-2-yl)carbamoyl)benzo[b]thiophen-5-yl)difluoromethyl)phosphonic acid]	> 300	> 300	–	–
CC(C)(C)[C@H](NC(=O)c1cc2cc(C(F)(F)P(=O)(O)O)ccc2s1)C(=O)N1CCC[C@H]1C(=O)N(CCC(=O)NCCCC#Cc1cccc2c1CN(C1CCC(=O)NC1=O)C2=O)c1ccc(S(C)(=O)=O)cc1 (stereo partly drawn) [Compound 654, ((2-(((2S)-1-((2S)-2-((3-((5-(2-(2,6-dioxopiperidin-3-yl)-1-oxoisoindolin-4-yl)pent-4-yn-1-yl)amino)-3-oxopropyl)(4-(methylsulfonyl)phenyl)carbamoyl)pyrrolidin-1-yl)-3,3-dimethyl-1-oxobutan-2-yl)carbamoyl)benzo[b]thiophen-5-yl)difluoromethyl)phosphonic acid]	> 300	> 300	> 10000	–
CN(C(=O)[C@@H]1C[C@@H](OCC(=O)NCCCCCCCCCC#Cc2cccc3c2CN(C2CCC(=O)NC2=O)C3=O)CN1C(=O)[C@@H](NC(=O)c1cc2cc(C(F)(F)P(=O)(O)O)ccc2s1)C(C)(C)C)c1ccc(Br)cc1 (stereo partly drawn) [Compound 415, ((2-(((2S)-1-((2S,4R)-2-((4-bromophenyl)(methyl)carbamoyl)-4-(2-((11-(2-(2,6-dioxopiperidin-3-yl)-1-oxoisoindolin-4-yl)undec-10-yn-1-yl)amino)-2-oxoethoxy)pyrrolidin-1-yl)-3,3-dimethyl-1-oxobutan-2-yl)carbamoyl)benzo[b]thiophen-5-yl)difluoromethyl)phosphonic acid]	–	–	> 10000	DC50 (STAT6; L1236 cells, read-out: DC50 S6 L1236): > 10000 nM; DC50 (STAT6; MB231 cells, read-out: DC50 S6 MB231): > 10000 nM

The next lines start with results.

DC50 (STAT6; [2]) [nM]	DC50 (STAT5; [3]) [nM]	DC50 (STAT5; [4]) [nM]	SMILES	further results
> 300	–	–	CN(CCCC#Cc1cccc2c1CN(C1CCC(=O)NC1=O)C2=O)C(=O)CCN(C(=O)[C@@H]1CCCN1C(=O)[C@@H](NC(=O)c1cc2cc(C(F)(F)P(=O)(O)OCOC(=O)C(C)(C)C)ccc2s1)C(C)(C)C)c1ccc2sccc2c1 (stereo partly drawn) [Compound 671, ((((2-(((2S)-1-((2S)-2-(benzo[b]thiophen-5-yl(3-((5-(2-(2,6-dioxopiperidin-3-yl)-1-oxoisoindolin-4-yl)pent-4-yn-1-yl)(methyl)amino)-3-oxopropyl)carbamoyl)pyrrolidin-1-yl)-3,3-dimethyl-1-oxobutan-2-yl)carbamoyl)benzo[b]thiophen-5-yl)difluoromethyl)(hydroxy)phosphoryl)oxy)methyl pivalate]	DC50 (STAT5; [1]): < 100 nM
> 300	–	–	CN(CCCC#Cc1cccc2c1CN(C1CCC(=O)NC1=O)C2=O)C(=O)CCN(C(=O)[C@@H]1CCCN1C(=O)[C@@H](NC(=O)c1cc2cc(C(F)(F)P(=O)(O)OCOC(=O)C(C)(C)C)ccc2s1)C(C)(C)C)c1ccc2occc2c1 (stereo partly drawn) [Compound 672, ((((2-(((2S)-1-((2S)-2-(benzofuran-5-yl(3-((5-(2-(2,6-dioxopiperidin-3-yl)-1-oxoisoindolin-4-yl)pent-4-yn-1-yl)(methyl)amino)-3-oxopropyl)carbamoyl)pyrrolidin-1-yl)-3,3-dimethyl-1-oxobutan-2-yl)carbamoyl)benzo[b]thiophen-5-yl)difluoromethyl)(hydroxy)phosphoryl)oxy)methyl pivalate]	DC50 (STAT5; [1]): < 100 nM
> 300	> 300	> 10000	CC(C)(C)[C@H](NC(=O)c1cc2cc(C(F)(F)P(=O)(O)O)ccc2s1)C(=O)N1CCC[C@H]1C(=O)N(CCC(=O)N1CC(CC#Cc2cccc3c2CN(C2CCC(=O)NC2=O)C3=O)C1)c1ccc(Br)cc1 (stereo partly drawn) [Compound 667, ((2-(((2S)-1-((2S)-2-((4-bromophenyl)(3-(3-(3-(2-(2,6-dioxopiperidin-3-yl)-1-oxoisoindolin-4-yl)prop-2-yn-1-yl)azetidin-1-yl)-3-oxopropyl)carbamoyl)pyrrolidin-1-yl)-3,3-dimethyl-1-oxobutan-2-yl)carbamoyl)benzo[b]thiophen-5-yl)difluoromethyl)phosphonic acid]	DC50 (STAT5; [5]): > 10000 nM
> 300	–	–	CN(CCCC#Cc1cccc2c1CN(C1CCC(=O)NC1=O)C2=O)C(=O)CCN(C(=O)[C@@H]1CCCN1C(=O)[C@@H](NC(=O)c1cc2cc(C(F)(F)P(=O)(O)OCOC(=O)C(C)(C)C)ccc2s1)C(C)(C)C)c1ccc(Br)cc1 (stereo partly drawn) [Compound 677, ((((2-(((2S)-1-((2S)-2-((4-bromophenyl)(3-((5-(2-(2,6-dioxopiperidin-3-yl)-1-oxoisoindolin-4-yl)pent-4-yn-1-yl)(methyl)amino)-3-oxopropyl)carbamoyl)pyrrolidin-1-yl)-3,3-dimethyl-1-oxobutan-2-yl)carbamoyl)benzo[b]thiophen-5-yl)difluoromethyl)(hydroxy)phosphoryl)oxy)methyl pivalate]	DC50 (STAT5; [1]): < 100 nM
